Test results as given in patent US10310377B2, “Material for forming film for lithography, composition for forming film for lithography, film for lithography, pattern forming method and purification method” (Mitsubishi Gas Chemical Company, Inc., priority 2014, dated 2019).

How the values were obtained:
[1] = Thermogravimetric measurement (TG), 15% thermal weight loss temperature; type: physicochemical
[2] = Solubility in PGME, PGMEA, CPN and CHN at 23° C.
Procedure: Herein, the solubility in PGME and/or PGMEA, and/or CPN, and/or CHN is defined as “Mass of resin/(Mass of resin+Mass of solvent)×100 (% by mass)”.
The amount of each compound dissolved in 1-methoxy-2-propanol (PGME), propylene glycol monomethyl ether acetate (PGMEA), cyclopentanone (CPN), and cyclohexanone (CHN) was measured at 23° C., and the results were evaluated according to the following criteria.
Evaluation A: 10% by mass or more
Evaluation B: less than 10% by mass

[3] = cyclopentanone and cyclohexanone
[4] = 1-methoxy-2-propanol and propylene glycol monomethyl ether acetate

Compound | 15% thermal weight loss temperature [1] [°C] | solubility in CPN and CHN [2, 3] [% by mass] | solubility in CPN and CHN (Evaluation) [2, 3] | solubility in PGME and PGMEA [2, 4] [% by mass] | solubility in PGME and PGMEA (Evaluation) [2, 4]
c1ccc2c(c1)c1ccccc1c1c3ccccc3c3ccccc3c21 [DBC, dibenzo[g,p]chrysene] | ≥ 400 | ≥ 10 | A (10% by mass or more) | – | –
tetraallyloxydibenzochrysene [TAODBC] | – | – | – | ≥ 10 | A (10% by mass or more)
